Holding throughout (type): cell-based
One assay deals with NCI-1H226. Description: Mesothelioma cell line proliferation assay, H226 (ATPlite). Particulars: Homo sapiens, NCI-H226, 144 h, 6 days with compound. How it is done: (§1) Mesothelioma cell lines, NCI-1H226 and NCI-1H2052 (all sourced from the ATCC cell culture collection) are plated in 96-well plates (Corning® 96 Well White Polystyrene Microplate clear flat bottom, white polystyrene (TC-Treated)), at 1500 cells/well in full medium (RPMI 1640 ATCC modification with L-glutamine, HEPES, Phenol Red, Sodium Pyruvate, High glucose, Low sodium bicarbonate and 10% fetal bovine serum). Cells are incubated overnight at 37° C. in an incubator with 5% C02. Then compounds, dissolved in DMSO, are added in dose-response. Cells are incubated with compound dilutions for another 6 days at 37° C. in an incubator with 5% C02. Cell viability is quantitated using the ATPlite kit (Perkin-Elmer) and the luminescence is read-out using an Envision instrument (Perkin-Elmer). The amount of relative light units produced using the ATPlite kit is used to calculated percent of inhibition.
(§2) The activities of some example compounds are depicted in the table below. The activity ranges A, B and C refer to EC50 values in the mesothelioma cell line proliferation assay as described as follows: “A”: EC50<1 μM; “B”: 1 μM s EC50≤10 μM and “C”: EC50≥10 μM; NT: not tested.

For assay [1], the system named is YAP/TAZ-TEAD transcription. As to the kind of experiment: Reporter gene assay for measuring the inhibition of YAP/TAZ-TEAD transcription (TEAD-responsive element luciferase reporter in Hek293T cells). As to conditions: Hek293T cells transiently transfected with TEAD-responsive element luciferase reporter, 24 hours incubation. In outline:
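Readout is SteadyLite luciferase luminescence from a TEAD-responsive element reporter transiently transfected into Hek293T cells, exposed to compounds for 24 h at 37 °C/5% CO2. IC50 derived from percent inhibition, scaled between vehicle basal activity (0%) and positive control inhibitor (100%).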
For orientation: Reporter assays use an easily measured gene product as a stand-in for the process of interest.

The next assay has as its system NCI-1H2052. Description: Mesothelioma cell line proliferation assay, H2052 (ATPlite). As to conditions: Homo sapiens, NCI-H2052, 144 h, 6 days with compound, read-out: H2025 (EC50). How it is done: as §1, §2
(In general: ATP-based viability assays read luminescence as a measure of living cells.)

Consider `C=CC(=O)NC1Cc2ccncc2N(c2ccc(C(F)(F)F)cc2)C1` (centres unmarked) [compound 083, N-(1-(4-(trifluoromethyl)phenyl)-1,2,3,4-tetrahydro-1,7-naphthyridin-3-yl)acrylamide], for which the EC50 in the assay with NCI-1H226 and in the assay with NCI-1H2052 was below 1000 nM in each case. In addition, the IC50 – broadly, the point on the concentration scale where inhibition reaches its midpoint – in assay [1] (Homo sapiens, HEK-293T, 24 h) is below 1000 nM.
For the compound `C=CC(=O)NC1Cc2ccccc2N(c2ccc(C(F)(F)F)c(F)c2)C1` (centres unmarked) [compound 028, N-(1-(3-fluoro-4-(trifluoromethyl)phenyl)-1,2,3,4-tetrahydroquinolin-3-yl)acrylamide], the EC50 in the assay on NCI-1H226 and with NCI-1H2052 was below 1000 nM throughout. Besides, in assay [1] (Homo sapiens, HEK-293T, 24 h), the 50% inhibitory concentration (IC50) is below 1000 nM.
Consider `C=CC(=O)NC1Cc2ncccc2N(c2ccc(C(F)(F)F)cc2)C1` (centres unmarked) [compound 080, N-(1-(4-(trifluoromethyl)phenyl)-1,2,3,4-tetrahydro-1,5-naphthyridin-3-yl)acrylamide], for which the concentration for a half-maximal effect (EC50) in the assay with NCI-1H226 and in the assay with NCI-1H2052 was below 1000 nM in each case. Also, in assay [1] (Homo sapiens, HEK-293T, 24 h), the IC50 was below 1000 nM.
In the case of `C=CC(=O)NCC1Cc2ccccc2N(c2ccc(C(F)(F)F)cc2F)C1` (centres unmarked) [compound 113, N-((1-(2-fluoro-4-(trifluoromethyl)phenyl)-1,2,3,4-tetrahydroquinolin-3-yl)methyl)acrylamide], in the assay with NCI-1H226, the EC50 (commonly the concentration giving half of the maximal effect) was below 1000 nM. The compound also came in with an IC50 in assay [1] (Homo sapiens, HEK-293T, 24 h) below 1000 nM.
In the case of `C=CC(=O)NC1Cc2c(C#N)cccc2N(c2ccc(C(F)(F)F)cc2)C1` (centres unmarked) [compound 078, N-(5-cyano-1-(4-(trifluoromethyl)phenyl)-1,2,3,4-tetrahydroquinolin-3-yl)acrylamide], the EC50 in the assay with NCI-1H226 and with NCI-1H2052 was below 1000 nM throughout. The compound further displayed an IC50 in assay [1] (Homo sapiens, HEK-293T, 24 h) below 1000 nM.
On to `CC(=O)NCC1Cc2c(C#N)cccc2N(c2ccc(C(F)(F)F)cc2)C1` (centres unmarked) [Cpd. No. 154, N-((5-cyano-1-(4-(trifluoromethyl)phenyl)-1,2,3,4-tetrahydroquinolin-3-yl)methyl)acetamide], for which the EC50 is below 1000 nM with NCI-1H226 and 1000 to 10000 nM in the assay on NCI-1H2052. Also, the IC50 in assay [1] (Homo sapiens, HEK-293T, 24 h) was below 1000 nM.
For `C=CC(=O)NC1Cc2c(CC#N)cccc2N(c2ccc(C(F)(F)F)cc2)C1` (centres unmarked) [compound 164, N-(5-(cyanomethyl)-1-(4-(trifluoromethyl)phenyl)-1,2,3,4-tetrahydroquinolin-3-yl)acrylamide], the EC50 with NCI-1H226 and with NCI-1H2052 was below 1000 nM each time. Also, in assay [1] (Homo sapiens, HEK-293T, 24 h), the IC50 is below 1000 nM.
In the case of `C=CC(=O)NC1Cc2c(N)cccc2N(c2ccc(C(F)(F)F)cc2)C1` (centres unmarked) [compound 075, N-(5-amino-1-(4-(trifluoromethyl)phenyl)-1,2,3,4-tetrahydroquinolin-3-yl)acrylamide], the concentration giving a half-maximal response (EC50) in the assay on NCI-1H226 and in the assay on NCI-1H2052 was below 1000 nM each time. Also, the 50% inhibitory concentration (IC50) in assay [1] (Homo sapiens, HEK-293T, 24 h) is below 1000 nM.
Consider `C=CC(=O)NC1Cc2ccccc2N(Cc2ccc(C(F)(F)F)cc2)C1` (centres unmarked) [compound 181, N-(1-(4-(trifluoromethyl)benzyl)-1,2,3,4-tetrahydroquinolin-3-yl)acrylamide], for which the EC50 in the assay with NCI-1H226 is below 1000 nM. Also, the IC50 in assay [1] (Homo sapiens, HEK-293T, 24 h) was below 1000 nM.
For the compound `C=CC(=O)NC1Cc2ccccc2N(c2ccc(C#N)cc2)C1` (centres unmarked) [compound 142, N-(1-(4-cyanophenyl)-1,2,3,4-tetrahydroquinolin-3-yl)acrylamide], the concentration for a half-maximal effect (EC50) in the assay with NCI-1H226 and in the assay with NCI-1H2052 was below 1000 nM in each case. In assay [1] (Homo sapiens, HEK-293T, 24 h), this compound displayed an IC50 below 1000 nM.
In the case of `C=CC(=O)NC1Cc2c(NCCOC)cccc2N(c2ccc(C(F)(F)F)cc2)C1` (centres unmarked) [compound 077, N-(5-((2-methoxyethyl)amino)-1-(4-(trifluoromethyl)phenyl)-1,2,3,4-tetrahydroquinolin-3-yl)acrylamide], the EC50 with NCI-1H226 and in the assay on NCI-1H2052 was below 1000 nM each time. The compound further came in with an IC50 in assay [1] (Homo sapiens, HEK-293T, 24 h) below 1000 nM.
`C=CC(=O)NCC1Cc2c(CC#N)cccc2N(c2ccc(C(F)(F)F)cc2)C1` (centres unmarked) [Cpd. No. 163, N-((5-(cyanomethyl)-1-(4-(trifluoromethyl)phenyl)-1,2,3,4-tetrahydroquinolin-3-yl)methyl)acrylamide]: the EC50 in the assay on NCI-1H226 and with NCI-1H2052 was below 1000 nM each time. The compound also had an IC50 in assay [1] (Homo sapiens, HEK-293T, 24 h) below 1000 nM.
For `C=CC(=O)NCC1Cc2ccccc2N(Cc2ccc(C(F)(F)F)cc2)C1` (centres unmarked) [compound 184, N-((1-(4-(trifluoromethyl)benzyl)-1,2,3,4-tetrahydroquinolin-3-yl)methyl)acrylamide], the EC50 with NCI-1H226 was below 1000 nM. Also, the IC50 in assay [1] (Homo sapiens, HEK-293T, 24 h) is below 1000 nM.
Take `C=CC(=O)NCC1Cc2ccccc2N(c2ccc(C(F)F)nc2)C1` (centres unmarked) [compound 149, N-((1-(6-(difluoromethyl)pyridin-3-yl)-1,2,3,4-tetrahydroquinolin-3-yl)methyl)acrylamide]: the 50% effective concentration (EC50) with NCI-1H226 and in the assay on NCI-1H2052 was 1000 to 10000 nM throughout. The IC50 in assay [1] (Homo sapiens, HEK-293T, 24 h) is below 1000 nM.
As to `C=CC(=O)NCC1Cc2c(N)cccc2N(c2ccc(C(F)(F)F)cc2)C1` (centres unmarked) [Cpd. No. 153, N-((5-amino-1-(4-(trifluoromethyl)phenyl)-1,2,3,4-tetrahydroquinolin-3-yl)methyl)acrylamide], the EC50 with NCI-1H226 and in the assay with NCI-1H2052 was below 1000 nM in each case. In addition, the IC50 in assay [1] (Homo sapiens, HEK-293T, 24 h) was below 1000 nM.
As for `C=CC(=O)NCC1Cc2ccccc2N([C@H]2CC[C@H](C(F)(F)F)CC2)C1` (stereo partly drawn) [compound 143, trans-N-((1-(4-(trifluoromethyl)cyclohexyl)-1,2,3,4-tetrahydroquinolin-3-yl)methyl)acrylamide], the EC50 with NCI-1H226 and in the assay with NCI-1H2052 was below 1000 nM in each case. The compound further returned an IC50 in assay [1] (Homo sapiens, HEK-293T, 24 h) below 1000 nM.
Consider `C=C(F)C(=O)NC1Cc2ccccc2N(c2ccc(C(F)(F)F)cc2)C1` (centres unmarked) [compound 039, 2-fluoro-N-(1-(4-(trifluoromethyl)phenyl)-1,2,3,4-tetrahydroquinolin-3-yl)acrylamide], for which the half-maximal effective concentration (EC50) in the assay on NCI-1H226 and with NCI-1H2052 was below 1000 nM throughout. Besides, the IC50 in assay [1] (Homo sapiens, HEK-293T, 24 h) was below 1000 nM.
As to `C=CC(=O)NC1Cc2c(Cc3cccnc3)cccc2N(c2ccc(C(F)(F)F)cc2)C1` (centres unmarked) [compound 059, N-(5-(pyridin-3-yl-methyl)-1-(4-(trifluoromethyl)phenyl)-1,2,3,4-tetrahydroquinolin-3-yl)acrylamide], the EC50 with NCI-1H226 was below 1000 nM. In addition, the 50% inhibitory concentration (IC50) in assay [1] (Homo sapiens, HEK-293T, 24 h) is below 1000 nM.
Consider `C=CC(=O)NC1Cc2ccccc2N(c2ccc(S(F)(F)(F)(F)F)cc2)C1` (centres unmarked) [compound 023, N-(1-(4-(pentafluoro-λ^6-sulfaneyl)phenyl)-1,2,3,4-tetrahydroquinolin-3-yl)acrylamide], for which the EC50 in the assay with NCI-1H226 was below 1000 nM. The concentration for half-maximal inhibition (IC50) in assay [1] (Homo sapiens, HEK-293T, 24 h) is below 1000 nM.
For the compound `C=CC(=O)NC1Cc2cccnc2N(c2ccc(C(F)(F)F)cc2)C1` (centres unmarked) [compound 081, N-(1-(4-(trifluoromethyl)phenyl)-1,2,3,4-tetrahydro-1,8-naphthyridin-3-yl)acrylamide], the EC50 with NCI-1H226 and in the assay on NCI-1H2052 was below 1000 nM throughout. The compound also came in with a concentration for half-maximal inhibition (IC50) in assay [1] (Homo sapiens, HEK-293T, 24 h) below 1000 nM.
Turning to `C=CC(=O)NC1Cc2ccccc2N(c2ccc(OC(F)(F)F)cc2)C1` (centres unmarked) [compound 021, N-(1-(4-(trifluoromethoxy)phenyl)-1,2,3,4-tetrahydroquinolin-3-yl)acrylamide], in the assay with NCI-1H226, the half-maximal effective concentration (EC50) is below 1000 nM. For the same compound, the 50% inhibitory concentration (IC50) in assay [1] (Homo sapiens, HEK-293T, 24 h) is below 1000 nM.
For the compound `FC(F)(F)c1ccc(N2CC(C3CC(Br)=NO3)Cc3ccccc32)cc1` (single isomer, unassigned) [Cpd. No. 194(Dia1)-En1, 3-bromo-5-(1-(4-(trifluoromethyl)phenyl)-1,2,3,4-tetrahydroquinolin-3-yl)-4,5-dihydroisoxazole], the concentration giving a half-maximal response (EC50) with NCI-1H226 and in the assay with NCI-1H2052 was below 1000 nM throughout. The same compound returned an IC50 in assay [1] below 1000 nM.
On to `C=CC(=O)NCC1Cc2ccccc2N(c2ccc(C#N)cc2)C1` (centres unmarked) [compound 147, N-((1-(4-cyanophenyl)-1,2,3,4-tetrahydroquinolin-3-yl)methyl)acrylamide], for which the EC50 in the assay with NCI-1H226 and with NCI-1H2052 was below 1000 nM throughout. This compound showed a concentration for half-maximal inhibition (IC50) in assay [1] (Homo sapiens, HEK-293T, 24 h) below 1000 nM.
For the compound `C=CC(=O)NC1Cc2ccccc2N(c2ccc(SC(F)(F)F)cc2)C1` (centres unmarked) [compound 030, N-(1-(4-((trifluoromethyl)thio)phenyl)-1,2,3,4-tetrahydroquinolin-3-yl)acrylamide], in the assay with NCI-1H226, the EC50 was below 1000 nM. This compound also registered a half-maximal inhibitory concentration (IC50) in assay [1] (Homo sapiens, HEK-293T, 24 h) below 1000 nM.
In the case of `C=CC(=O)NC1Cc2c(C)cccc2N(c2ccc(C(F)(F)F)cc2)C1` (centres unmarked) [compound 064, N-(5-methyl-1-(4-(trifluoromethyl)phenyl)-1,2,3,4-tetrahydroquinolin-3-yl)acrylamide], the 50% effective concentration (EC50) with NCI-1H226 was below 1000 nM. This compound displayed an IC50 in assay [1] (Homo sapiens, HEK-293T, 24 h) below 1000 nM.
In the case of `C=CC(=O)NCC1Cc2c(C)cccc2N(c2ccc(C(F)(F)F)cc2)C1` (centres unmarked) [compound 128, N-((5-methyl-1-(4-(trifluoromethyl)phenyl)-1,2,3,4-tetrahydroquinolin-3-yl)methyl)acrylamide], in the assay with NCI-1H226, the EC50 is below 1000 nM. The same compound displayed an IC50 in assay [1] (Homo sapiens, HEK-293T, 24 h) below 1000 nM.
Take `C=CC(=O)N(C)CC1Cc2ccccc2N(c2ccc(C(F)(F)F)cc2)C1` (centres unmarked) [compound 134, N-methyl-N-((1-(4-(trifluoromethyl)phenyl)-1,2,3,4-tetrahydroquinolin-3-yl)methyl)acrylamide]: the half-maximal effective concentration (EC50) in the assay on NCI-1H226 was below 1000 nM. For the same compound, the 50% inhibitory concentration (IC50) in assay [1] (Homo sapiens, HEK-293T, 24 h) is below 1000 nM.

Source of the values: patent publication US20240025856A1, “1,2,3,4-TETRAHYDROQUINOLINE DERIVATIVES AS INHIBITORS OF THE YAP/TAZ-TEAD ACTIVATION FOR TREATING CANCER” (KATHOLIEKE UNIVERSITEIT LEUVEN, priority 2020, published 2024).
